Assay results: patent US10519143B2, “Substituted-indole-compounds as estrogen receptor down-regulators” (LUOXIN PHARMACEUTICAL (SHANGHAI) CO., LTD, priority 2016, dated 2019)

Test system: MCF-7 cells
Assay: MCF-7 cell proliferation inhibition assay
Type: cell-based
Conditions: Homo sapiens, MCF7, 144 h, read-out: anti-proliferation in MCF-7 cells (nM)
Protocol: Experimental Reagent: RPMI 1640 medium, fetal bovine serum, Promega CellTiter-Glo reagent. The cell line MCF-7 was purchased from The European Collection of Authenticated Cell Cultures (ECACC). Envision Multilabel Reader (PerkinElmer). Experimental Method: […] The cell plate was placed in a carbon dioxide incubator overnight. […] The cell plate was incubated in a carbon dioxide incubator for 6 days. Promega CellTiter-Glo reagent was added to the cell plate at 25 μL per well, cells were incubated for 10 minutes at room temperature to stabilize the luminescence signal, which was measured using PerkinElmer Envision Multilabel Reader. Data Analysis: […] (Model 205 in XLFIT5, iDBS)

Compound	IC50
CC/C(=C(/c1ccc(/C=C/C(=O)O)cc1)c1cc2ccccc2[nH]1)c1ccc(F)cc1F [Compound I-45]	103 nM
CC/C(=C(\c1cc2ccccc2[nH]1)c1c(F)cc(/C=C/C(=O)O)cc1F)c1ccc(F)cc1Cl [Compound I-57]	32 nM
CC/C(=C(/c1ccc(/C=C/C(=O)O)cc1)c1cc2ccccc2[nH]1)c1cc(Cl)sc1Cl [Compound I-17]	8.29 nM
CC/C(=C(/c1ccc(OCCN2CC(CF)C2)cc1)c1cc2ccccc2[nH]1)c1ccc(F)cc1Cl [II-1]	4.57 nM
CC/C(=C(/c1ccc(/C=C/C(=O)O)cc1)c1cc2ccccc2[nH]1)c1ccsc1C#N [Compound I-18]	22 nM
CC/C(=C(/c1ccc(/C=C/C(=O)O)cc1)c1cc2ccccc2[nH]1)c1c(C)cccc1Cl [Compound I-29]	30 nM

Same assay, conditions: Homo sapiens, MCF7, 144 h; MCF-7 cells, 6 days incubation, CellTiter-Glo; read-out: anti-proliferation in MCF-7 cells

IC50	Compound
4.35 nM	CC/C(=C(/c1ccc(/C=C/C(=O)O)cc1)c1[nH]c2ccccc2c1C#N)c1ccc(Cl)cc1Cl [Compound I-53]
1.56 nM	CC/C(=C(/c1ccc(OCCN2CC(CC#N)C2)cc1)c1[nH]c2ccccc2c1Cl)c1ccc(Cl)cc1C#N [II-12]
4.11 nM	CC/C(=C(/c1ccc(/C=C/C(=O)O)cc1)c1cc2ccccc2[nH]1)c1ccc(Cl)cc1C(F)(F)F [Compound I-14]
5 nM	CC/C(=C(/c1ccc(OCCN2CC(CC#N)C2)cc1)c1[nH]c2ccccc2c1Cl)c1ccc(F)cc1Cl [II-8]
49 nM	CC/C(=C(/c1ccc(/C=C/C(=O)O)cc1)c1cc2ccccc2[nH]1)c1ccc(C#N)cc1Cl [Compound I-34]
23 nM	CC/C(=C(/c1ccc(/C=C/C(=O)O)cc1)c1[nH]c2ccccc2c1C)c1cccc(C)c1 [Compound I-54]
27 nM	CC/C(=C(/c1ccc(/C=C/C(=O)O)cc1)c1cc2ccccc2[nH]1)c1ccc(C(F)(F)F)cc1Cl [Compound I-13]
5.59 nM	CC/C(=C(/c1ccc(/C=C/C(=O)O)cc1)c1[nH]c2ccccc2c1Cl)c1ccc(F)cc1Cl [Compound I-8]
35 nM	CC/C(=C(/c1ccc(/C=C/C(=O)O)cc1)c1[nH]c2ccccc2c1Cl)c1csc(C)c1 [Compound I-56]
33 nM	CC/C(=C(/c1ccc(/C=C/C(=O)O)cc1)c1cc2ccccc2[nH]1)c1ccccc1C [Compound I-50]
8.36 nM	CC(C)C/C(=C(/c1ccc(/C=C/C(=O)O)cc1)c1cc2ccccc2[nH]1)c1ccc(F)cc1Cl [Compound I-27]
2.61 nM	CC/C(=C(/c1ccc(OCCN2CC(CF)C2)cc1)c1cc2ccccc2[nH]1)c1ccccc1C#N [II-7]
5.84 nM	CC/C(=C(/c1ccc(/C=C/C(=O)O)cc1)c1[nH]c2ccccc2c1Cl)c1ccc(Cl)cc1C(F)(F)F [Compound I-44]
321 nM	CC/C(=C(/c1ccc(/C=C/C(=O)O)cc1)c1cc2ccccc2[nH]1)c1cccs1 [Compound I-6]
42 nM	CC/C(=C(/c1ccc(/C=C/C(=O)O)cc1)c1cc2ccccc2[nH]1)c1ccccc1C#N [Compound I-49]
3.91 nM	CC/C(=C(/c1ccc(/C=C/C(=O)O)cc1)c1cc2ccccc2[nH]1)c1ccc(OC)cc1Cl [Compound I-41]
9.24 nM	CC/C(=C(/c1ccc(/C=C/C(=O)O)cc1)c1cc2ccccc2[nH]1)c1ccccc1Cl [Compound I-51]
4.27 nM	CC/C(=C(/c1ccc(/C=C/C(N)=O)cc1)c1cc2ccccc2[nH]1)c1ccc(Cl)cc1C(F)(F)F [Compound I-47]
2.31 nM	CC/C(=C(/c1ccc(/C=C/C(=O)O)cc1)c1[nH]c2ccccc2c1F)c1ccc(F)cc1Cl [Compound I-40]

IC50	Compound
13 nM	CC/C(=C(/c1ccc(/C=C/C(=O)O)cc1)c1cc2ccccc2[nH]1)c1ccc(F)cc1C(F)(F)F [Compound I-12]
11 nM	CC/C(=C(/c1ccc(/C=C/C(=O)O)cc1)c1cc2ccccc2[nH]1)c1ccc(Cl)cc1Cl [Compound I-37]
6.86 nM	CC/C(=C(\c1cc2ccccc2[nH]1)c1c(F)cc(OCCN2CC(CF)C2)cc1F)c1ccc(F)cc1Cl [II-4]
3.66 nM	CC/C(=C(/c1ccc(/C=C/C(=O)O)cc1)c1[nH]c2ccccc2c1Cl)c1ccc2c(c1)OCCO2 [Compound I-31]
4.88 nM	CC/C(=C(/c1ccc(/C=C/C(=O)NS(C)(=O)=O)cc1)c1cc2ccccc2[nH]1)c1ccc(Cl)cc1C(F)(F)F [Compound I-48]
13 nM	CC/C(=C(/c1ccc(/C=C/C(=O)O)cc1)c1[nH]c2ccccc2c1Cl)c1ccccc1C(F)(F)F [Compound I-10]
6.77 nM	CC/C(=C(/c1ccc(OCCN2CC(CF)C2)cc1)c1cc2cc(F)ccc2[nH]1)c1ccc(F)cc1Cl [II-3]
14 nM	CC/C(=C(/c1ccc(/C=C/C(=O)O)cc1)c1cc2ccccc2[nH]1)c1ccc(Cl)cc1C#N [Compound I-21]
20 nM	CC/C(=C(/c1ccc(/C=C/C(=O)O)cc1)c1[nH]c2ccccc2c1Cl)c1cc(Cl)sc1Cl [Compound I-35]
21.5 nM	CC/C(=C(/c1ccc(/C=C/C(=O)O)cc1)c1[nH]c2ccccc2c1Cl)c1ccc(Cl)cc1 [Compound I-24]
61 nM	CC/C(=C(/c1ccc(/C=C/C(=O)O)cc1)c1cc2ccccc2[nH]1)c1ccc(OC)cc1 [Compound I-32]
8.53 nM	CC/C(=C(/c1ccc(/C=C/C(=O)O)cc1)c1[nH]c2ccccc2c1Br)c1ccccc1C(F)(F)F [Compound I-11]
3.92 nM	CC/C(=C(/c1ccc(OCCN2CC(CC#N)C2)cc1)c1cc2ccccc2[nH]1)c1ccccc1Cl [II-10]
2.86 nM	CC/C(=C(/c1ccc(/C=C/C(=O)O)cc1)c1[nH]c2ccccc2c1Cl)c1ccc(OC)cc1 [Compound I-33]
69 nM	CC/C(=C(/c1ccc(/C=C/C(=O)O)cc1)c1[nH]c2ccccc2c1Cl)c1ccc(Cl)c(C)c1 [Compound I-28]
4.78 nM	CC/C(=C(/c1ccc(/C=C/C(=O)O)cc1)c1[nH]c2ccccc2c1C)c1ccc(F)cc1Cl [Compound I-19]
282 nM	CC/C(=C(/c1ccc(/C=C/C(=O)O)cc1)c1cc2ccccc2[nH]1)c1cccc(OC(F)(F)F)c1 [Compound I-2]
4.84 nM	CC/C(=C(/c1ccc(/C=C/C(=O)O)cc1)c1[nH]c2ccccc2c1C#N)c1ccc(F)cc1Cl [Compound I-23]
2.42 nM	CC/C(=C(/c1ccc(/C=C/C(=O)O)cc1)c1[nH]c2ccccc2c1Cl)c1ccc(Cl)nc1C#N [Compound I-55]

IC50	Compound
2.46 nM	CC/C(=C(/c1ccc(OCCN2CC(CF)C2)cc1)c1cc2ccccc2[nH]1)c1ccccc1Cl [II-6]
393 nM	CC/C(=C(/c1ccc(/C=C/C(=O)O)cc1)c1cc2cnccc2[nH]1)c1ccc(F)cc1Cl [Compound I-46]
8.04 nM	CC/C(=C(/c1ccc(/C=C/C(=O)O)cc1)c1cc2ccccc2[nH]1)c1ccccc1C(F)(F)F [Compound I-5]
7.43 nM	CC/C(=C(/c1ccc(OCCN2CC(CC#N)C2)cc1)c1cc2ccccc2[nH]1)c1ccccc1C#N [II-11]
48 nM	CC/C(=C(/c1ccc(/C=C/C(=O)O)cc1)c1cc2ccccc2[nH]1)c1ccc2c(c1)OCCO2 [Compound I-30]
1.56 nM	CC/C(=C(/c1ccc(/C=C/C(=O)O)cc1)c1[nH]c2ccccc2c1Cl)c1ccc(OC)cc1C#N [Compound I-43]
0.77 nM	CC/C(=C(/c1ccc(/C=C/C(=O)O)cc1)c1[nH]c2ccccc2c1C#N)c1ccc(OC)cc1Cl [Compound I-42]
40 nM	CC/C(=C(/c1ccc(/C=C/C(=O)O)cc1)c1cc2ccccc2[nH]1)c1cccc(F)c1C#N [Compound I-52]
9.52 nM	CC/C(=C(/c1ccc(/C=C/C(=O)O)cc1)c1[nH]c2ccccc2c1Br)c1ccc(F)cc1Cl [Compound I-7]
51 nM	CC/C(=C(/c1ccc(OCCN2CC(CC#N)C2)cc1)c1cc2ccccc2[nH]1)c1ccc(Cl)cc1C(F)(F)F [II-9]
0.86 nM	CC/C(=C(/c1ccc(/C=C/C(=O)O)cc1)c1[nH]c2ccccc2c1Cl)c1ccc(Cl)cc1C#N [Compound I-22]
6.84 nM	CC/C(=C(/c1ccc(/C=C/C(=O)O)cc1)c1[nH]c2ccccc2c1C#N)c1cc(Cl)sc1Cl [Compound I-36]
7.56 nM	CC/C(=C(/c1ccc(/C=C/C(=O)O)cc1)c1[nH]c2ccccc2c1Cl)c1ccsc1C#N [Compound I-15]
325 nM	CC/C(=C(/c1ccc(/C=C/C(=O)O)cc1)c1cc2ccccc2[nH]1)c1cccc(C(F)(F)F)c1 [Compound I-4]
206 nM	CC/C(=C(/c1ccc(/C=C/C(=O)O)cc1)c1cc2ccccc2[nH]1)c1ccccc1OC(F)(F)F [Compound I-3]
7.23 nM	CC/C(=C(/c1ccc(OCCN2CC(CF)C2)cc1)c1[nH]c2ccccc2c1Cl)c1ccc(F)cc1Cl [II-5]
167 nM	CC/C(=C(/c1ccc(/C=C/C(=O)O)cc1)c1cc2ccc(F)cc2[nH]1)c1ccc(F)cc1Cl [Compound I-9]
7.75 nM	CC/C(=C(/c1ccc(OCCN2CC(CF)C2)cc1)c1cc2ccc(F)cc2[nH]1)c1ccc(F)cc1Cl [II-2]
